According to ChEMBL document CHEMBL1201862, “PubChem BioAssay data set” (2004):
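Grown in 96-well plates, cells were treated for 48 hours with each compound at five concentrations. Insufficient inhibition: endpoint recorded as highest concentration tested. Here, GI50 denotes the concentration required for 50% inhibition of growth.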 Activity calls are given as the source filed them. No stated cut-off is given here; in the data, active = GI50 up to about 1.1 µM and inactive = higher.

Key:
Assay in all cases: NCI tumour cell line growth inhibition, 48 h
LOX IMVI = test system: LOX IMVI
OVCAR-8 = test system: OVCAR-8
Malme-3M = test system: Malme-3M
UACC-257 = test system: UACC-257
CAKI-1 = test system: CAKI-1
NCI-H522 = test system: NCI-H522
UO-31 = test system: UO-31
OVCAR-5 = test system: OVCAR-5
MOLT-4 = test system: MOLT-4
PC-3 = test system: PC-3
KM12 = test system: KM12
HCT-116 = test system: HCT-116
HOP-62 = test system: HOP-62
ACHN = test system: ACHN
HOP-92 = test system: HOP-92
TK-10 = test system: TK-10
K562 = test system: K562
SK-OV-3 = test system: SK-OV-3
RXF 393 = test system: RXF 393

Measured: GI50

C=CCc1c(O)c2ccccc2[nH]c1=O
inactive: LOX IMVI > 100 µM | OVCAR-8 > 100 µM | Malme-3M > 100 µM | UACC-257 > 100 µM | CAKI-1 > 100 µM | NCI-H522 > 100 µM | UO-31 > 100 µM | OVCAR-5 > 100 µM | MOLT-4 > 100 µM | PC-3 > 100 µM | KM12 > 100 µM | HCT-116 > 100 µM | HOP-62 > 100 µM | ACHN > 100 µM | HOP-92 > 100 µM | TK-10 > 100 µM | K562 > 100 µM

COc1ccc(C[N+](C)(C)N)cc1OC
inactive: LOX IMVI > 10 µM | OVCAR-8 > 10 µM | Malme-3M > 10 µM | UACC-257 > 10 µM | CAKI-1 > 10 µM | NCI-H522 > 10 µM | UO-31 > 100 µM | OVCAR-5 > 10 µM | MOLT-4 > 10 µM | PC-3 > 10 µM | KM12 > 10 µM | HCT-116 > 10 µM | HOP-62 > 10 µM | ACHN > 10 µM | HOP-92 > 10 µM | TK-10 > 10 µM | SK-OV-3 > 10 µM | K562 4.03 µM | RXF 393 > 100 µM

COc1ccc(CCC2c3cc(OC)c(OC)cc3CCN2C)cc1OC (stereo unspecified)
inactive: LOX IMVI > 100 µM | OVCAR-8 > 100 µM | Malme-3M > 100 µM | UACC-257 > 100 µM | CAKI-1 > 100 µM | NCI-H522 > 100 µM | UO-31 > 100 µM | OVCAR-5 > 100 µM | MOLT-4 > 100 µM | KM12 > 100 µM | HCT-116 > 100 µM | HOP-62 > 100 µM | ACHN > 100 µM | HOP-92 46 µM | TK-10 > 100 µM | SK-OV-3 > 100 µM | K562 > 100 µM | RXF 393 > 100 µM

C[N+]1=C(c2cccnc2/C=N/O)OCC1(C)C
inactive: LOX IMVI > 100 µM | OVCAR-8 > 100 µM | Malme-3M > 100 µM | UACC-257 > 100 µM | CAKI-1 > 100 µM | NCI-H522 > 100 µM | UO-31 > 100 µM | OVCAR-5 > 100 µM | MOLT-4 > 100 µM | KM12 > 100 µM | HCT-116 > 100 µM | HOP-62 > 100 µM | ACHN > 100 µM | HOP-92 > 100 µM | TK-10 > 100 µM | SK-OV-3 > 100 µM | K562 > 100 µM | RXF 393 > 100 µM

O=C(CO[N+](=O)[O-])OC/C=C/c1ccccc1
inactive: LOX IMVI > 100 µM | OVCAR-8 > 100 µM | Malme-3M > 100 µM | UACC-257 > 100 µM | CAKI-1 > 100 µM | NCI-H522 > 100 µM | UO-31 > 100 µM | OVCAR-5 > 100 µM | MOLT-4 > 100 µM | KM12 > 100 µM | HCT-116 > 100 µM | HOP-62 > 100 µM | ACHN > 100 µM | HOP-92 > 100 µM | TK-10 > 100 µM | SK-OV-3 > 100 µM | K562 > 100 µM | RXF 393 > 100 µM

COc1ccc(O[C@H](CO)C[C@@H]2COC(C)(C)O2)cc1
inactive: LOX IMVI > 100 µM | OVCAR-8 > 100 µM | Malme-3M > 100 µM | UACC-257 > 100 µM | CAKI-1 > 100 µM | NCI-H522 > 100 µM | UO-31 > 100 µM | OVCAR-5 > 100 µM | MOLT-4 > 100 µM | PC-3 > 100 µM | KM12 > 100 µM | HCT-116 > 100 µM | HOP-62 > 100 µM | ACHN > 100 µM | TK-10 > 100 µM | SK-OV-3 > 100 µM | K562 > 100 µM | RXF 393 > 100 µM

COc1ccc(-c2c(C#N)c(-c3ccccc3)n(NS(=O)(=O)c3ccccc3)c(=O)c2C#N)cc1
inactive: LOX IMVI 60.4 µM | OVCAR-8 97.1 µM | Malme-3M 41.6 µM | UACC-257 > 100 µM | CAKI-1 > 100 µM | NCI-H522 20.5 µM | OVCAR-5 > 100 µM | MOLT-4 27.6 µM | PC-3 59 µM | KM12 > 100 µM | HCT-116 > 100 µM | HOP-62 95.1 µM | ACHN > 100 µM | HOP-92 26.2 µM | TK-10 > 100 µM | SK-OV-3 > 100 µM | K562 65.9 µM | RXF 393 76.4 µM

Cc1nnc(N/N=C2/C(=O)Nc3c(Cl)cc(Cl)cc32)n1N
inactive: LOX IMVI > 100 µM | OVCAR-8 > 100 µM | Malme-3M > 100 µM | UACC-257 > 100 µM | CAKI-1 81.1 µM | NCI-H522 34.2 µM | UO-31 > 100 µM | OVCAR-5 > 100 µM | MOLT-4 44.8 µM | KM12 > 100 µM | HCT-116 > 100 µM | HOP-62 > 100 µM | ACHN > 100 µM | HOP-92 > 100 µM | TK-10 > 100 µM | SK-OV-3 > 100 µM | K562 > 100 µM | RXF 393 59.2 µM

CN1C(=O)CC(CC(=O)C2CCCCC2=O)CC1=O (stereo unspecified)
inactive: LOX IMVI > 100 µM | OVCAR-8 > 100 µM | Malme-3M > 100 µM | UACC-257 > 100 µM | CAKI-1 > 100 µM | NCI-H522 > 100 µM | UO-31 > 100 µM | OVCAR-5 > 100 µM | MOLT-4 > 100 µM | KM12 > 100 µM | HCT-116 > 100 µM | HOP-62 > 100 µM | ACHN > 100 µM | HOP-92 > 100 µM | TK-10 > 100 µM | SK-OV-3 > 100 µM | K562 > 100 µM | RXF 393 > 100 µM

COc1ccc2[nH]c3c(c2c1)[C@H](c1ccccc1)C[C@@H]1C(=O)N(c2ccccc2)C(=O)[C@H]31
inactive: LOX IMVI 33.2 µM | OVCAR-8 4.93 µM | Malme-3M 45.5 µM | UACC-257 > 100 µM | CAKI-1 25.6 µM | NCI-H522 31.3 µM | UO-31 22.9 µM | OVCAR-5 > 100 µM | MOLT-4 15.1 µM | KM12 17.5 µM | HCT-116 4.95 µM | HOP-62 22 µM | ACHN 22.1 µM | HOP-92 37.3 µM | TK-10 33.7 µM | SK-OV-3 23.3 µM | K562 47.9 µM | RXF 393 16 µM

c1ccc(C[P+]2(c3ccccc3)c3ccccc3-c3ccccc32)cc1
inactive: LOX IMVI > 100 µM | OVCAR-8 > 100 µM | UACC-257 > 100 µM | CAKI-1 > 100 µM | NCI-H522 > 100 µM | UO-31 > 100 µM | MOLT-4 > 100 µM | PC-3 > 100 µM | KM12 > 100 µM | HCT-116 > 100 µM | HOP-62 > 100 µM | HOP-92 > 100 µM | TK-10 > 100 µM | SK-OV-3 > 100 µM | K562 > 100 µM | RXF 393 > 100 µM
